Laboratory results as given in patent US9493423B2, “Compounds capable of inhibiting voltage gated calcium ion channel, and pharmaceutical compositions comprising the same” (KOREA INSTITUTE OF SCIENCE AND TECHNOLOGY, priority 2015, dated 2016).

Key:
Type in all cases: cell-based
[1] = target: T1, α1G T-type calcium ion channel (Homo sapiens, UniProt O43497); assay: Antagonistic activity against T-type calcium ion channel, α1G (FDSS6000 screening / whole cell patch clamp in HEK293 cells); conditions: HEK293 cells expressing α1G
T1 construct: host or cells: HEK293 stably expressing α1G and Kir2.1, selected with G-418
T1 sequence (O43497 whole entry): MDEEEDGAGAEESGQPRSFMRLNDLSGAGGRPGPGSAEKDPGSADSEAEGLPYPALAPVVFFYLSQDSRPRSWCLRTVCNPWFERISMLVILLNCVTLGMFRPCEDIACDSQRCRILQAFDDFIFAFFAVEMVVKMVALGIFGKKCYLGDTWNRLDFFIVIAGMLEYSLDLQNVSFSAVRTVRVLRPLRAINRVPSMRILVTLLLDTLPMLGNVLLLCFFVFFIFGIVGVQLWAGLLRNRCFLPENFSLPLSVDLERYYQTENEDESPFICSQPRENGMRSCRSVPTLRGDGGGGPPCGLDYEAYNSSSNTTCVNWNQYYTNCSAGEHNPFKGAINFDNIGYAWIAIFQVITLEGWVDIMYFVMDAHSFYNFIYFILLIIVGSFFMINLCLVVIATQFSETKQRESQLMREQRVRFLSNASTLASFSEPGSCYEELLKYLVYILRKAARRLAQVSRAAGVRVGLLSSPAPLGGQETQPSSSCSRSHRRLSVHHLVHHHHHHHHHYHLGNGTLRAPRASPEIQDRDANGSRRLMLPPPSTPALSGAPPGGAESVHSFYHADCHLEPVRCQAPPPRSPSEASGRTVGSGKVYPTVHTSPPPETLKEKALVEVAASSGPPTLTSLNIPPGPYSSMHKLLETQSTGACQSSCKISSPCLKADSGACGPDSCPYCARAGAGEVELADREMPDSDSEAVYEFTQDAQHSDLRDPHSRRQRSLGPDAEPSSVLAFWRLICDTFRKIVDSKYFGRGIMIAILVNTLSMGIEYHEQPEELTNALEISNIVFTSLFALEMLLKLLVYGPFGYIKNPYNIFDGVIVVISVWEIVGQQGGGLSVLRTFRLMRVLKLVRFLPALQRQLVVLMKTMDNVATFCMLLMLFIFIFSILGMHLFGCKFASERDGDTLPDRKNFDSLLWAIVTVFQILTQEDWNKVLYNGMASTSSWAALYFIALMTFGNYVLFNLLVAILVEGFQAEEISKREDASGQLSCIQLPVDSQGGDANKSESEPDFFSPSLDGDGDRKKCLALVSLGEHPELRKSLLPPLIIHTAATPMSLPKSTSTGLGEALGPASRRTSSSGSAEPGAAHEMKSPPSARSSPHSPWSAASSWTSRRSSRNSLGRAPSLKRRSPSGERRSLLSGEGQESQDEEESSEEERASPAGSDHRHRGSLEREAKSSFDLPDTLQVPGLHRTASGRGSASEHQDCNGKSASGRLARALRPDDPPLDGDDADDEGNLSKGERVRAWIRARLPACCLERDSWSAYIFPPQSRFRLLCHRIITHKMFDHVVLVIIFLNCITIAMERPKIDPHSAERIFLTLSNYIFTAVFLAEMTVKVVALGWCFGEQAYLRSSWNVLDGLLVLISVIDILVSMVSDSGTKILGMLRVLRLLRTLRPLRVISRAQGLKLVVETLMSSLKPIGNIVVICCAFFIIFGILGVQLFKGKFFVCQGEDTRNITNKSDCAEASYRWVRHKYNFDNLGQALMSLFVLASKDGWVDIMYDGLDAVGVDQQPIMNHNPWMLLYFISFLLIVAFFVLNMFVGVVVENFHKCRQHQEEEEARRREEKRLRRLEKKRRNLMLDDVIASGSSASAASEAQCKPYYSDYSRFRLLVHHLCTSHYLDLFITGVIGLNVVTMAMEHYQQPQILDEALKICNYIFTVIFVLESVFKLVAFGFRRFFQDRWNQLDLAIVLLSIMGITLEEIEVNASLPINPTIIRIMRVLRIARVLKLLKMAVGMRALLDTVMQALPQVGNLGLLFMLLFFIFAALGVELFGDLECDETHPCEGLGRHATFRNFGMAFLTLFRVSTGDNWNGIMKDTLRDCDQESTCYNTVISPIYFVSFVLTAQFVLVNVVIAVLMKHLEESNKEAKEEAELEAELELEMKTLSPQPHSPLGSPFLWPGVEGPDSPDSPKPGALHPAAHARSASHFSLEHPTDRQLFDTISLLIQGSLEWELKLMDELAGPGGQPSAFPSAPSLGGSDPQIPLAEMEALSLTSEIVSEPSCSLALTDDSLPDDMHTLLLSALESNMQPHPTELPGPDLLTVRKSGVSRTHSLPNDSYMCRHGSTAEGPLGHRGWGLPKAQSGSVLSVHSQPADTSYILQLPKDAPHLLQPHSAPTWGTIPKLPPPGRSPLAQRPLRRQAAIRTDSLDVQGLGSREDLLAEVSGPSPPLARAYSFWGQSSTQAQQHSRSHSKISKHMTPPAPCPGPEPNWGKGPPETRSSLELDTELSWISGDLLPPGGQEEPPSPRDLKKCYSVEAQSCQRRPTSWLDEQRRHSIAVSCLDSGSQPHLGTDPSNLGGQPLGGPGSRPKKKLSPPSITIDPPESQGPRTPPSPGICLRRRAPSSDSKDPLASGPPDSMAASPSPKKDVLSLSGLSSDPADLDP
Method: The novel compounds, represented by Chemical Formula 1, of the present invention were assayed for antagonistic activity against T-type calcium ion channels as follows.
After being synthesized, the compounds were primarily screened for inhibitory activity against T-type channels using a high-throughput screening device FDSS6000, and selection was made of the synthetic compounds that blocked T-type channels at an inhibitory rate of 40% or higher. In a secondary screening process, the selected compounds were examined for the effective inhibitory concentration IC50 by measuring Ca^2+ potentials in human HEK293 cells.
Using Titertek Multidrop Plate Dispenser, HEK293 cell line cells that stably expressed alG T-type calcium ion channel and Kir2.1 (α1G cell line: KCTC 10519BP, Korean Human Gene Bank of the Korea Research Institute of Bioscience and Biotechnology) were seeded at a density of 4×10^4 cells/well into 96-well plates that were treated with poly-L-lysine (0.05 mg/ml) 12˜24 hrs before activity screening. On the day of test, the cells adherent to the 96-well plates were washed three times with a HEPES buffer (150 mM NaCl, 5 mM KCl, 1 mM MgCl2, 2 mM CaCl2, 10 mM HEPES, 10 mM glucose, pH 7.4) using a 96-well plate washer (Bio Tek), and then stained with a fluorescent dye by treatment with a HEPES containing 5 μM fluo-3/AM and 0.001% Pluronic F-127 for 1 hr at room temperature. Again, the cells were washed twice with a HEPES buffer. Ten minutes before reading on FDSS6000, the cells were washed once with a HEPES buffer containing 10 mM CaCl2, and the final volume per well was adjusted to 81 μL. Separately from the 96-well plates in which cells were contained, two 96-well plates were prepared so as to contain KCl (final concentration 75 mM), which activates T-type calcium ion channels, and blocker drugs therein. Since most cell-based HTS devices, although provided with a liquid application system necessary for drug infusion, have no liquid absorption systems, blocker drugs to be searched for and KCl were individually prepared into a 5-fold higher concentration in 27 μL of 10 mM CaCl2 HEPES. The concentration was 1/5 diluted into a final volume of 135 μL in each well before measurement. For the FDSS6000 measurements, cells were pre-incubated with drugs for 75 seconds after the 20-sec baseline recordings, and a change in intracellular calcium concentration induced by KCl was measured. The percent inhibition by a test compound was calculated as integrated values of 340/380 fluorescent ratio of untreated and drug-treated cells.
For accurate calcium-imaging, the light source of 4 xenon lamps in FDSS6000 were irradiated to make the cells exposed selectively to the excitation wavelength (340 nm and 380 nm) by computer-controlled filter wheel. Data was obtained at regular intervals of each 1.23 second. The emitter fluorescence light flew in through a long-pass filter was obtained as an average 340/380 ratio value for each well in the 96-wells by using CCD camera and digital fluorescence analyzer in FDSS6000. All image data and analyses were obtained by using FDSS6000-exclusive program provide from Hamamatsu Photonics.
Dulbecco's modified Eagle's medium (DMEM) supplemented with 10% fetal bovine serum (FBS) and 1% penicillin/streptomycin (v/v) was employed. The cells were cultured at 36.5° C. in a humidified condition of 95% air/5% CO2 in an incubator. The medium was refreshed every 3 or 4 days while the cells were sub-cultured every week, with the growth of only α1G T-type calcium ion channel-expressing cells in the presence of G-418 (0.5 mg/mL). The recording to the cells used in the T-type calcium channel activity analysis was conducted 2-7 days after the cells were culturing on a cover slip coated with poly-L-lysine (0.5 mg/mL) when conducting every sub-culture. For analysis at a single cell level, the T-type calcium channel current was measured by an electrophysiological whole cell patch clamp method using EPC-9 amplifier (HEKA, German). […]

[2] = system: HT-1080 (Human Fibroblastoma); assay: SRB (sulforhodamine B) assay of cancer cell growth, HT-1080; design: dose or concentration left out as unconfirmed; conditions: 48 hrs incubation
Method: (§1) For this assay, the cells at passages were separated from the surfaces of well plates using a trypsin-EDTA solution, and seeded at a density of 5×10^3 cells/well into 96-well plates. After 24 hrs of incubation in a CO2 incubator, the medium was removed. A 4-fold dilution of each of the compounds was added in an amount of 100 μL to each well, and the cells were incubated for 48 hrs. The cells were fixed by adding 100 μL of formalin to each well, washed five times with distilled water, dried at room temperature. The cells in each well were stained with 100 μL of 0.4% SRB for 30 min. at room temperature, washed five times with 1% acetic acid, and dried at room temperature. […] The optical density was read at 540 nm.
(§2) To calculate pharmaceutical efficacy of test compounds in cancer cells, GI50 was calculated according to the following Equation 1 or 2: […]
(§3) (wherein T0 is the number of cells before the addition of a test compound, and T2 is the number of cells after 48 hrs of incubation in the presence of a test compound)
(§4) The inhibition of cancer cell growth by the test compound (% inhibition) was determined by data regression using the Lotus program from the values calculated according to Equation 1, and the IC50 value was calculated from the % inhibition.

[3] = system: U87-MG (Human Glioma); assay: SRB (sulforhodamine B) assay of cancer cell growth, U87-MG; design: dose or concentration left out as unconfirmed; conditions: 48 hrs incubation
Method: as §1, §2, §3, §4

[4] = system: LNCap (Human Prostate Carcinoma); assay: SRB (sulforhodamine B) assay of cancer cell growth, LNCap; design: dose or concentration left out as unconfirmed; conditions: 48 hrs incubation
Method: as §1, §2, §3, §4

[5] = system: KYSE410 (Human Esophageal Carcinoma); assay: SRB (sulforhodamine B) assay of cancer cell growth, KYSE410; design: dose or concentration left out as unconfirmed; conditions: 48 hrs incubation
Method: as §1, §2, §3, §4

| SMILES | inhibition at 10 µM [1] [%] | further results |
| --- | --- | --- |
| CC(C)Cc1cc(CNS(=O)(=O)c2ccccc2)nn1-c1ccccc1 [Compound 1, N-[(5-Isobutyl-1-phenyl-1H-pyrazol-3-yl)methyl]benzenesulfonamide] | 61.4 | – |
| CC(C)Cc1cc(CNS(=O)(=O)c2cccc(F)c2)nn1-c1ccccc1 [Compound 2, N-[(5-Isobutyl-1-phenyl-1H-pyrazol-3-yl)methyl]-3-fluorobenzenesulfonamide] | 64.1 | – |
| CC(C)Cc1cc(CNS(=O)(=O)c2cccc(Cl)c2)nn1-c1ccccc1 [Compound 3, N-[(5-Isobutyl-1-phenyl-1H-pyrazol-3-yl)methyl]-3-chlorobenzenesulfonamide] | 57.6 | – |
| Cc1ccc(S(=O)(=O)NCc2cc(CC(C)C)n(-c3ccccc3)n2)cc1 [Compound 4, N-[(5-Isobutyl-1-phenyl-1H-pyrazol-3-yl)methyl]-4-methylbenzenesulfonamide] | 57.3 | – |
| CC(C)Cc1cc(CNS(=O)(=O)Cc2ccccc2)nn1-c1ccccc1 [Compound 7, N-[(5-Isobutyl-1-phenyl-1H-pyrazol-3-yl)methyl]benzylsulfonamide] | 65.7 | – |
| CC(C)Cc1cc(CNS(=O)(=O)c2cccc3cccnc23)nn1-c1ccccc1 [Compound 10, N-[(5-Isobutyl-1-phenyl-1H-pyrazol-3-yl)methyl]quinoline-8-sulfonamide] | 29.8 | – |
| Cc1ccc(F)c(S(=O)(=O)NCc2cc(CC(C)C)n(-c3ccccc3)n2)c1 [Compound 11, N-[(5-Isobutyl-1-phenyl-1H-pyrazol-3-yl)methyl]-(2-fluoro-5-methyl)benzenesulfonamide] | – | Inhibition % α1G (10 μM) [1]: 54.86%; Inhibition % for Cancer Cell HT1080 [2]: 57.56%; Inhibition % for Cancer Cell U87-MG [3]: 34.40%; Inhibition % for Cancer Cell LNCap [4]: 71.41%; Inhibition % for Cancer Cell KYSE410 [5]: 47.30% |
| CC(C)Cc1cc(CNS(=O)(=O)c2c(F)cccc2F)nn1-c1ccccc1 [Compound 13, N-[(5-Isobutyl-1-phenyl-1H-pyrazol-3-yl)methyl]-2,6-difluorobenzenesulfonamide] | 45.1 | – |
| Cc1c(CNS(=O)(=O)c2ccccc2)nn(-c2ccccc2)c1CC(C)C [Compound 15, N-[(5-Isobutyl-4-methyl-1-phenyl-1H-pyrazol-3-yl)methyl]benzenesulfonamide] | 70.5 | – |
| Cc1c(CNS(=O)(=O)c2ccc3ccccc3c2)nn(-c2ccccc2)c1CC(C)C [Compound 16, N-[(5-Isobutyl-4-methyl-1-phenyl-1H-pyrazol-3-yl)methyl]naphthalene-2-sulfonamide] | 74.2 | – |
| CC(C)Cc1cc(CNS(=O)(=O)c2ccccc2)nn1-c1ccc(F)cc1 [Compound 20, N-[(5-Isobutyl-1-(4-fluorophenyl)-1H-pyrazol-3-yl)methyl]benzenesulfonamide] | 45.6 | – |
| CC(C)Cc1cc(CN2Cc3ccccc3S2(=O)=O)nn1-c1ccccc1 [Compound 28, 2-((5-Isobutyl-1-phenyl-1H-pyrazol-3-yl)methyl)-2,3-dihydrobenzo[d]isothiazole-1,1-dioxide] | 67.9 | – |
| CC(C)Cc1cc(CN2Cc3ccccc3S2(=O)=O)nn1C(C)(C)C [Compound 29, 2-[{1-(tert-Butyl)-5-isobutyl-1H-pyrazol-3-yl}methyl]-2,3-dihydro[d]isothiazole 1,1-dioxide] | – | Inhibition % α1G (10 μM) [1]: 60.62% |
| CC(C)Cc1cc(CN2Cc3ccccc3S2(=O)=O)nn1-c1ccc(F)cc1 [Compound 30, 2-[{1-(4-Fluorophenyl)-5-isobutyl-1H-pyrazol-3-yl}methyl]-2,3-dihydro[d]isothiazole 1,1-dioxide] | – | Inhibition % α1G (10 μM) [1]: 70.81% |
| CC(C)(C)n1nc(CN2Cc3ccccc3S2(=O)=O)cc1-c1ccc(C2CCCCC2)cc1 [Compound 36, 2-[{1-(tert-Butyl)-5-(4-cyclohexylphenyl)-1H-pyrazol-3-yl}methyl]-2,3-dihydro[d]isothiazole 1,1-dioxide] | – | Inhibition % α1G (10 μM) [1]: 45.62% |
